# Data taken from ChEMBL document CHEMBL6121062, “Discovery, Optimization, and Preclinical Pharmacology of EP652, a METTL3 Inhibitor with Efficacy in Liquid and Solid Tumor Models” (J Med Chem, 2025).
# Tested on: not listed separately
# Test: Lipophilicity, logD of compound in 1-octanol/PBS at pH 7.4 incubated for 24 hrs by HPLC analysis
# Format: physicochemical
# Conditions: not given
row,Compound,logD at 24 h
1,COc1cc(-c2cn(Cc3ccc(N4CCC[C@@H](N)C4)nn3)nn2)c2cn[nH]c2c1,1.01
2,COc1cccc(-c2cn(C(C)n3ccc(N4CCC[C@@H](NCC5CCC5)C4)cc3=O)nn2)c1 (some centres not stated),2.22
3,COc1cncc(-c2cn(C(C)n3ccc(N4CCC[C@@H](NCC5CCC5)C4)cc3=O)cn2)c1 (some centres not stated),1.52
4,COc1cncc(-c2cc(C(C)n3ccc(N4CCC[C@@H](NCC5CCC5)C4)cc3=O)sn2)c1 (some centres not stated),2.26
5,COc1cncc(-c2cn(Cc3ccc(N4CCCCC(NCC5CCC5)C4)nn3)nn2)c1 (configuration not stated),1.18
6,COc1cncc(-c2cn(C(c3ccc(N4CCC[C@@H](NCC5CCC5)C4)nn3)C(F)(F)F)nn2)c1 (some centres not stated),2.43
7,COc1cc(-c2cn(Cc3ccc(N4CCC[C@@H](N(C)CC5CCC5)C4)nn3)nn2)c2cn[nH]c2c1,2.59
8,CC(n1cc(-c2cncc(N(C)C)c2)nn1)n1ccc(N2CCC[C@@H](NCC3CCC3)C2)cc1=O (some centres not stated),1.79
9,COc1cncc(-n2cnc(C(C)n3ccc(N4CCC[C@@H](NCC5CCC5)C4)cc3=O)c2)c1 (some centres not stated),1.25
10,COc1cc(-c2cn(Cc3ccc(N4CCC(NCC5CCC5)C4)nn3)nn2)c2cn[nH]c2c1 (configuration not stated),1.95
11,COc1cncc(-c2cnn(C(C)n3ccc(N4CCC[C@@H](NCC5CCC5)C4)cc3=O)n2)c1 (some centres not stated),1.84
12,COc1cncc(-c2cn(Cc3ccc(N4CC5(CCC5NCC5CCC5)C4)nn3)nn2)c1 (configuration not stated),1.54
13,COc1cncc(-c2cn(Cc3ccc(N4CCCC(NCC5CCC5)C4=O)nn3)nn2)c1 (configuration not stated),1.15
14,COc1cc(-c2cn(Cc3ccc(N4CCC(NCC5CCC5)CC4)nn3)nn2)c2cn[nH]c2c1,1.64

# Continued, values first:
row,logD at 24 h,Compound
1,1.6,COc1cncc(-n2cc(C(C)n3ccc(N4CCC[C@@H](NCC5CCC5)C4)cc3=O)cn2)c1 (some centres not stated)
2,1.6,C[C@@H](n1cc(-c2cncc(N3CCCC3)n2)nn1)n1ccc(N2CCC[C@@H](NCC3CC3)C2)cc1=O
3,2.04,COc1cncc(-c2cn(Cc3ccc(N4CCC[C@@H](NCC5CCC5)C4)cc3)nn2)c1
4,1.37,COc1cncc(-c2ncn(C(C)n3ccc(N4CCC[C@@H](NCC5CCC5)C4)cc3=O)n2)c1 (some centres not stated)
5,1.53,CC(n1cc(-c2cccn3cncc23)nn1)n1ccc(N2CCC[C@@H](NCC3CCC3)C2)cc1=O (some centres not stated)
6,1.93,CC(n1cc(-c2cncc(N3CCCC3)c2)nn1)n1ccc(N2CCC[C@@H](NCC3CC3)C2)cc1=O (some centres not stated)
7,1.92,COc1cc(-c2cn(Cc3ccc(N4CCC[C@@H](NCC(C)C)C4)nn3)nn2)c2cn[nH]c2c1

# Tested on: not listed separately
# Test: Unbound clearance in Sprague-Dawley rat at 1 mg/kg/day, iv measured for 24 hrs by LC-MS/MS analysis
# Format: ADME, organism-based
# Conditions: in vivo
row,Compound,CL free
1,COc1cncc(-c2cn(C(C)n3ccc(N4CCC[C@@H](NCC5CCC5)C4)cc3=O)cn2)c1 (some centres not stated),487 mL/min/kg
2,CC(n1cc(-c2cncc(N(C)C)c2)nn1)n1ccc(N2CCC[C@@H](NCC3CCC3)C2)cc1=O (some centres not stated),803 mL/min/kg

# The remaining lines, values ahead:
row,CL free,Compound
1,608 mL/min/kg,COc1cncc(-n2cc(C(C)n3ccc(N4CCC[C@@H](NCC5CCC5)C4)cc3=O)cn2)c1 (some centres not stated)
2,443 mL/min/kg,C[C@@H](n1cc(-c2cncc(N3CCCC3)n2)nn1)n1ccc(N2CCC[C@@H](NCC3CC3)C2)cc1=O
3,1487 mL/min/kg,CC(n1cc(-c2cncc(N3CCCC3)c2)nn1)n1ccc(N2CCC[C@@H](NCC3CC3)C2)cc1=O (some centres not stated)

# Tested on: Kasumi 1
# Test: Antiproliferative activity against human Kasumi 1 cells assessed as inhibition of cell viability incubated for 72 hrs by ATPlite assay
# Format: functional, cell-based
# Conditions: Kasumi 1, 72 h
row,Compound,IC50
1,COc1cc(-c2cn(Cc3ccc(N4CCC[C@@H](N)C4)nn3)nn2)c2cn[nH]c2c1,> 30000 nM
2,COc1cncc(-n2cc(C(C)n3ccc(N4CCC[C@@H](NCC5CCC5)C4)cc3=O)cn2)c1 (some centres not stated),306 nM
3,C[C@@H](n1cc(-c2cncc(N3CCCC3)n2)nn1)n1ccc(N2CCC[C@@H](NCC3CC3)C2)cc1=O,13 nM
4,COc1cccc(-c2cn(C(C)n3ccc(N4CCC[C@@H](NCC5CCC5)C4)cc3=O)nn2)c1 (some centres not stated),> 30000 nM
5,COc1cncc(-c2cn(C(C)n3ccc(N4CCC[C@@H](NCC5CCC5)C4)cc3=O)cn2)c1 (some centres not stated),453 nM
6,COc1cncc(-c2cc(C(C)n3ccc(N4CCC[C@@H](NCC5CCC5)C4)cc3=O)sn2)c1 (some centres not stated),1720 nM
7,COc1cncc(-c2cn(Cc3ccc(N4CCCCC(NCC5CCC5)C4)nn3)nn2)c1 (configuration not stated),> 30000 nM
8,COc1cncc(-c2cn(C(c3ccc(N4CCC[C@@H](NCC5CCC5)C4)nn3)C(F)(F)F)nn2)c1 (some centres not stated),12200 nM
9,COc1cncc(-c2cn(Cc3ccc(N4CCC[C@@H](NCC5CCC5)C4)cc3)nn2)c1,875 nM
10,COc1cc(-c2cn(Cc3ccc(N4CCC[C@@H](N(C)CC5CCC5)C4)nn3)nn2)c2cn[nH]c2c1,3130 nM
11,COc1cncc(-c2ncn(C(C)n3ccc(N4CCC[C@@H](NCC5CCC5)C4)cc3=O)n2)c1 (some centres not stated),1610 nM
12,CC(n1cc(-c2cncc(N(C)C)c2)nn1)n1ccc(N2CCC[C@@H](NCC3CCC3)C2)cc1=O (some centres not stated),44 nM
13,COc1cncc(-n2cnc(C(C)n3ccc(N4CCC[C@@H](NCC5CCC5)C4)cc3=O)c2)c1 (some centres not stated),> 30000 nM
14,COc1cc(-c2cn(Cc3ccc(N4CCC(NCC5CCC5)C4)nn3)nn2)c2cn[nH]c2c1 (configuration not stated),15300 nM
15,CC(n1cc(-c2cccn3cncc23)nn1)n1ccc(N2CCC[C@@H](NCC3CCC3)C2)cc1=O (some centres not stated),5400 nM
16,CC(n1cc(-c2cncc(N3CCCC3)c2)nn1)n1ccc(N2CCC[C@@H](NCC3CC3)C2)cc1=O (some centres not stated),11 nM
17,COc1cncc(-c2cnn(C(C)n3ccc(N4CCC[C@@H](NCC5CCC5)C4)cc3=O)n2)c1 (some centres not stated),> 30000 nM
18,COc1cncc(-c2cn(Cc3ccc(N4CC5(CCC5NCC5CCC5)C4)nn3)nn2)c1 (configuration not stated),> 30000 nM
19,COc1cc(-c2cn(Cc3ccc(N4CCC[C@@H](NCC(C)C)C4)nn3)nn2)c2cn[nH]c2c1,1760 nM
20,COc1cncc(-c2cn(Cc3ccc(N4CCCC(NCC5CCC5)C4=O)nn3)nn2)c1 (configuration not stated),> 30000 nM
21,COc1cc(-c2cn(Cc3ccc(N4CCC(NCC5CCC5)CC4)nn3)nn2)c2cn[nH]c2c1,> 30000 nM

# Tested on: not listed separately
# Test: Unbound AUC in Sprague-Dawley rat at 1 mg/kg/day, iv measured for 24 hrs by LC-MS/MS analysis
# Format: ADME, organism-based
# Conditions: in vivo
row,fAUC,Compound
1,4.7 µM·min,C[C@@H](n1cc(-c2cncc(N3CCCC3)n2)nn1)n1ccc(N2CCC[C@@H](NCC3CC3)C2)cc1=O
2,2.2 µM·min,CC(n1cc(-c2cncc(N(C)C)c2)nn1)n1ccc(N2CCC[C@@H](NCC3CCC3)C2)cc1=O (some centres not stated)
3,1.3 µM·min,CC(n1cc(-c2cncc(N3CCCC3)c2)nn1)n1ccc(N2CCC[C@@H](NCC3CC3)C2)cc1=O (some centres not stated)

# Target: METTL3/METTL14 (Homo sapiens, UniProt Q86U44)
# Test: Displacement of [3H]-SAM from METTL3/METTL14 (unknown origin) using 5'biotinylated-UACACUCGAUCUGGACUAAAGGUGCUC-3' RNA as substrate preincubated for 10 mins followed by substrate/[3H]-SAM addition measured after 90 mins by SPA
# Format: protein-complex assay
# Conditions: not given
# METTL3/METTL14, sequence (Q86U44 whole entry): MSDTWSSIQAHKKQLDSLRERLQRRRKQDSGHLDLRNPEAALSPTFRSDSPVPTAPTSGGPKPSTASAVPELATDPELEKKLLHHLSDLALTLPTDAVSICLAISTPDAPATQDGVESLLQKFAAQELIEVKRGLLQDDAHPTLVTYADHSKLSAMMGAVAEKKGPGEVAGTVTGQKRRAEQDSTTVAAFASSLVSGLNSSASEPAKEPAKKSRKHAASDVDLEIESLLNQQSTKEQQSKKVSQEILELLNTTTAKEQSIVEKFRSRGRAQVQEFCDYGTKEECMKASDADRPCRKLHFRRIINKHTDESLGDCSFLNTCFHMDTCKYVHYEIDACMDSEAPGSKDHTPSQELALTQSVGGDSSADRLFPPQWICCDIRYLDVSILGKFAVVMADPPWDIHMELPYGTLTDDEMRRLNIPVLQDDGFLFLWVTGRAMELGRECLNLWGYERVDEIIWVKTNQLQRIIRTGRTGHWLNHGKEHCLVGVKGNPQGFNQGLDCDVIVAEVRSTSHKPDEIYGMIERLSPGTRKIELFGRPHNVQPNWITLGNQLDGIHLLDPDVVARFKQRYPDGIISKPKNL
# METTL3/METTL14, sequence (Q9HCE5 whole entry, further chain): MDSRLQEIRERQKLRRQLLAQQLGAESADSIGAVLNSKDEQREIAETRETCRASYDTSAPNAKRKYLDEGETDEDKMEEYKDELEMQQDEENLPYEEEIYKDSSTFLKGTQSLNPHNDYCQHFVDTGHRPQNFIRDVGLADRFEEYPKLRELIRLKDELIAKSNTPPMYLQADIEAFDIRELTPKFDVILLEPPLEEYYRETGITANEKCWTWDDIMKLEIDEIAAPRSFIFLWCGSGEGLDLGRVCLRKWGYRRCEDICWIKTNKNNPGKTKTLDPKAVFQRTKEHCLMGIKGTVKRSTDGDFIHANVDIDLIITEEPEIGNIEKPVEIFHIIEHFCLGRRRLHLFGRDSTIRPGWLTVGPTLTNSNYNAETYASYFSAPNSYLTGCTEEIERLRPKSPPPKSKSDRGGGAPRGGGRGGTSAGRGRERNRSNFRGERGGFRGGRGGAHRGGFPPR
row,Compound,IC50
1,COc1cc(-c2cn(Cc3ccc(N4CCC[C@@H](N)C4)nn3)nn2)c2cn[nH]c2c1,243 nM
2,COc1cncc(-c2cc(C(C)n3ccc(N4CCC[C@@H](NCC5CCC5)C4)cc3=O)sn2)c1 (some centres not stated),11 nM
3,COc1cncc(-c2cn(Cc3ccc(N4CCCCC(NCC5CCC5)C4)nn3)nn2)c1 (configuration not stated),50 nM
4,COc1cncc(-c2cn(C(c3ccc(N4CCC[C@@H](NCC5CCC5)C4)nn3)C(F)(F)F)nn2)c1 (some centres not stated),12 nM
5,COc1cncc(-n2cnc(C(C)n3ccc(N4CCC[C@@H](NCC5CCC5)C4)cc3=O)c2)c1 (some centres not stated),> 30000 nM
6,COc1cc(-c2cn(Cc3ccc(N4CCC(NCC5CCC5)C4)nn3)nn2)c2cn[nH]c2c1 (configuration not stated),235 nM
7,COc1cncc(-c2cnn(C(C)n3ccc(N4CCC[C@@H](NCC5CCC5)C4)cc3=O)n2)c1 (some centres not stated),> 30000 nM
8,COc1cncc(-c2cn(Cc3ccc(N4CC5(CCC5NCC5CCC5)C4)nn3)nn2)c1 (configuration not stated),2300 nM
9,COc1cncc(-c2cn(Cc3ccc(N4CCCC(NCC5CCC5)C4=O)nn3)nn2)c1 (configuration not stated),> 30000 nM
10,COc1cc(-c2cn(Cc3ccc(N4CCC(NCC5CCC5)CC4)nn3)nn2)c2cn[nH]c2c1,563 nM

# The next lines start with the values.
row,IC50,Compound
1,1 nM,COc1cncc(-n2cc(C(C)n3ccc(N4CCC[C@@H](NCC5CCC5)C4)cc3=O)cn2)c1 (some centres not stated)
2,1 nM,C[C@@H](n1cc(-c2cncc(N3CCCC3)n2)nn1)n1ccc(N2CCC[C@@H](NCC3CC3)C2)cc1=O
3,6 nM,COc1cncc(-c2cn(Cc3ccc(N4CCC[C@@H](NCC5CCC5)C4)cc3)nn2)c1
4,5 nM,COc1cncc(-c2ncn(C(C)n3ccc(N4CCC[C@@H](NCC5CCC5)C4)cc3=O)n2)c1 (some centres not stated)
5,8 nM,CC(n1cc(-c2cccn3cncc23)nn1)n1ccc(N2CCC[C@@H](NCC3CCC3)C2)cc1=O (some centres not stated)
6,3 nM,CC(n1cc(-c2cncc(N3CCCC3)c2)nn1)n1ccc(N2CCC[C@@H](NCC3CC3)C2)cc1=O (some centres not stated)
7,3 nM,COc1cc(-c2cn(Cc3ccc(N4CCC[C@@H](NCC(C)C)C4)nn3)nn2)c2cn[nH]c2c1
